Measured values: paper PMC3709815, “Reconstructing a Flavodoxin Oxidoreductase with Early Amino Acids” (International Journal of Molecular Sciences, 2013)
pKd: −log10 of the molar value.

Legend:
Assay type in all cases: binding
[1] = molecular target: T1, Megasphaera elsdenii flavodoxin (apoflavodoxin) (Megasphaera elsdenii, UniProt P00321); assay: far-UV circular dichroism of apo- and holoflavodoxin, reconstitution with FMN; settings: oxidized state; holoprotein reconstituted with 1.0 mM FMN, 40 mM sodium phosphate pH 7.0
T1 construct: synthetic gene in pET28b(+) NdeI/BamHI, 6xHis tag kept, E. coli BL21(DE3); apoprotein by trichloroacetic acid

[2] = molecular target: T2, Megasphaera elsdenii flavodoxin (apoflavodoxin) (Megasphaera elsdenii, UniProt P00321, C127V/C54A/F36V/F70L/F71L/F86V/M120V/M16L/M57V/M97L/W100V/W7V/W91V/W96V/Y6V/Y89V); assay: fluorescence titration of FMN with apoflavodoxin (ex […] nm, em […] nm); settings: read-out: Kd,ox
T2 construct: synthetic gene in pET28b(+) NdeI/BamHI, 6xHis tag kept, E. coli BL21(DE3); apoprotein by trichloroacetic acid

[3] = molecular target: T2, Megasphaera elsdenii flavodoxin (apoflavodoxin); assay: calculated from Kd,ox and redox potential Em, […] (anaerobic dithionite titration with redox dyes); settings: read-out: Kd,hq

T2 sequence (P00321 other isoform, or with tags, fused parts or gaps with the stated changes): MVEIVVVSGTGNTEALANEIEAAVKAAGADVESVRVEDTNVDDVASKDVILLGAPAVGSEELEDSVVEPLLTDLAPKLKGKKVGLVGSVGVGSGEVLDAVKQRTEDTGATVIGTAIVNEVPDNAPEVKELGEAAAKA
T1 sequence (P00321 whole entry): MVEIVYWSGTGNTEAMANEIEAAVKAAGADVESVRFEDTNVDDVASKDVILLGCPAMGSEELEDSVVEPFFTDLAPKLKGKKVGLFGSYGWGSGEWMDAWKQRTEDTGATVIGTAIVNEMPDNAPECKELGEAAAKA

| pKd [2] | pKd [3] | SMILES | far-UV circular dichroism of apo- and holoflavodoxin, reconstitution with FMN [1] |
| --- | --- | --- | --- |
| 5.53 |  | Cc1cc2nc3c(=O)[nH]c(=O)nc-3n(C[C@H](O)[C@H](O)[C@H](O)COP(=O)(O)O)c2cc1C [FMN] | conformation transition of mutant and wild-type protein induced by FMN binding is different |
|  | 1.36 | Cc1cc2c(cc1C)N(C[C@H](O)[C@H](O)[C@H](O)COP(=O)(O)O)c1[nH]c(=O)[nH]c(=O)c1N2 [FMNhq] |  |
